Values after ≈ are worked out from the molar mass of the structure shown. Each block holds one compound with its values, some of them ahead of it.
Key:
rat paw edema = experiment: Rat paw edema assay, oral dosing; assay type: in vivo; conditions: four hours after drug; for change in vivo at 100 mg/kg / change in vivo at 400 mg/kg: Rattus norvegicus, 4 h, read-out: % Difference from Control
Method: (§1) The anti-inflammatory activity of representative compounds of this invention was determined by the rat paw edema assay both by local administration (Table XI below) and by oral dosing (Table XII below). For the oral dosing, the procedure of C. A. Winter, E. A. Risley and G. W. Nuss, Proc. Soc. Exp. Biol. Med. 111, 544 (1962) was employed with measurement taken four hours after the drug was administered.
(§2) Tables XI and XII report the anti-inflammatory activity of the compounds tested as % difference in the edema or swelling as compared with the control. These Tables also give the response in many instances of more than one dose level of the same drug.

[1] = tested on: Trichophyton mentagrophytes (ATCC No. 8757 and 9129); experiment: Antifungal activity, agar dilution method: T. mentagrophytes; assay type: cell-based; conditions: ATCC8757, agar dilution, read-out: Antifungal Activity, Parts Per Million Inhibitions of Fungus and Yeast Species: T. mentagrophytes
Method: (§3) Various compounds of this invention display antifungal and anti-yeast activity.
(§4) In Table IX below are listed the antifungal activity of a number of compounds encompassed in the present invention. These were determined by the agar dilution method as described in Chapters 2 and 3 of Methods in Microbiology, Vol. 7B, edited by J. R. Norris and D. W. Ribbons, Academic Press, New York, 1972.

Trichophyton ajelloi = experiment: Antifungal activity, agar dilution method: T. ajelloi; assay type: cell-based; conditions: Arthroderma uncinatum, read-out: Antifungal Activity, Parts Per Million Inhibitions of Fungus and Yeast Species: T. ajelloi
Method: as §3, §4

[2] = tested on: Trichophyton rubrum (ATCC No. 10218 and 14001); experiment: Antifungal activity, agar dilution method: T. rubrum; assay type: cell-based; conditions: for Antifungal Activity, Parts Per Million Inhibitions of Fungus and Yeast Species: T. rubrum: agar dilution
Method: as §3, §4

[3] = Immunosuppressant activity (in words)
[4] = tested on: carrageenan rat paw edema; experiment: Rat paw edema assay, local administration; assay type: in vivo; conditions: injected directly into paw, 1 μg, read-out: % Difference from Control
Method: as §1
The local administration tests were carried out similarly except the irritant (carrageenan) and the test compound were injected simultaneously at time zero.
as §2

Candida tropicalis = experiment: Antifungal activity, agar dilution method: C. tropicalis; assay type: cell-based; conditions: read-out: Antifungal Activity, Parts Per Million Inhibitions of Fungus and Yeast Species: C. tropicalis
Method: as §3, §4

Structure (SMILES): Cc1cccc(C(=O)Nc2ccccc2-n2ccnc2)c1 [Compound 36]
% Difference from Control (rat paw edema; 100 mg/kg): -7%
% Difference from Control (rat paw edema; 400 mg/kg): -68%

MIC [1]: 100 µg/mL (≈ 292 µM)
MIC (Trichophyton ajelloi): 100 µg/mL (≈ 292 µM)
Structure (SMILES): O=C(Nc1ccccc1-n1ccnc1)c1cccc(Br)c1 [Compound 59]

MIC [1]: 100 µg/mL (≈ 289 µM)
MIC (Trichophyton ajelloi): 100 µg/mL (≈ 289 µM)
MIC ([2]; Trichophyton rubrum, ATCC10218, agar dilution, read-out: Antifungal Activity, Parts Per Million Inhibitions of Fungus and Yeast Species: T. rubrum): 100 µg/mL (≈ 289 µM)
Structure (SMILES): O=C(Nc1cccc(C(F)(F)F)c1)Nc1ccccc1-n1ccnc1 [Compound 82]

Structure (SMILES): c1ccc2c(c1)ncc1nccn12 [Compound 109, imidazo[1,2-a]quinoxaline]
immunosuppressant activity [3]: lacks immunosuppressant activity

Structure (SMILES): CCCCCc1nc2ccccc2n2ccnc12 [Compound 114]
change in vivo at 0.001 mg [4]: -68.2%

MIC (Trichophyton ajelloi): 100 µg/mL (≈ 374 µM)
Structure (SMILES): CCCCCCCc1nc2ccccc2n2ccnc12 [Compound 116]

Structure (SMILES): CCCCCCCCCCCCCCCc1nc2ccccc2n2ccnc12 [Compound 119]
Antifungal Activity, Parts Per Million Inhibitions of Fungus and Yeast Species: T. rubrum [2]: 8 Parts Per Million

Structure (SMILES): CCCCCCCCCCCCCCCCCc1nc2ccccc2n2ccnc12 [Compound 120]
Antifungal Activity, Parts Per Million Inhibitions of Fungus and Yeast Species: T. rubrum [2]: 1 Parts Per Million

Structure (SMILES): FC(F)(F)c1nc2ccccc2n2ccnc12 [Compound 122]
change in vivo at 100 mg/kg (rat paw edema; 100 mg/kg): -17%
change in vivo at 400 mg/kg (rat paw edema; 400 mg/kg): -68%

Structure (SMILES): c1ccc(-c2nc3ccccc3n3ccnc23)cc1 [Compound 131, 4-phenylimidazo[1,2-a]quinoxaline]
immunosuppressant activity [3]: only minor activity

Structure (SMILES): CC(=O)Nc1ccc(-c2nc3ccccc3n3ccnc23)cc1 [Compound 155]
change in vivo at 100 mg/kg (rat paw edema; 100 mg/kg): 70%
change in vivo at 400 mg/kg (rat paw edema; 400 mg/kg): -25%

MIC (Candida tropicalis): 100 µg/mL (≈ 330 µM)
Structure (SMILES): CC(=O)Oc1ccc(-c2nc3ccccc3n3ccnc23)cc1 [Compound 163]
